Assay results taken from ChEMBL document CHEMBL4402573, “Discovery and Optimization of α-Mangostin Derivatives as Novel PDE4 Inhibitors for the Treatment of Vascular Dementia” (J Med Chem, 2020).
Active and inactive are the calls of the source. No cut-off for these calls is given here.

Tests used:
[1] = target: Voltage-gated inwardly rectifying potassium channel KCNH2 (Homo sapiens, UniProt Q12809); assay: Inhibition of human ERG expressed in CHO cells by automated patch clamp electrophysiology; format: cell-based
Voltage-gated inwardly rectifying potassium channel KCNH2, sequence (Q12809 whole entry): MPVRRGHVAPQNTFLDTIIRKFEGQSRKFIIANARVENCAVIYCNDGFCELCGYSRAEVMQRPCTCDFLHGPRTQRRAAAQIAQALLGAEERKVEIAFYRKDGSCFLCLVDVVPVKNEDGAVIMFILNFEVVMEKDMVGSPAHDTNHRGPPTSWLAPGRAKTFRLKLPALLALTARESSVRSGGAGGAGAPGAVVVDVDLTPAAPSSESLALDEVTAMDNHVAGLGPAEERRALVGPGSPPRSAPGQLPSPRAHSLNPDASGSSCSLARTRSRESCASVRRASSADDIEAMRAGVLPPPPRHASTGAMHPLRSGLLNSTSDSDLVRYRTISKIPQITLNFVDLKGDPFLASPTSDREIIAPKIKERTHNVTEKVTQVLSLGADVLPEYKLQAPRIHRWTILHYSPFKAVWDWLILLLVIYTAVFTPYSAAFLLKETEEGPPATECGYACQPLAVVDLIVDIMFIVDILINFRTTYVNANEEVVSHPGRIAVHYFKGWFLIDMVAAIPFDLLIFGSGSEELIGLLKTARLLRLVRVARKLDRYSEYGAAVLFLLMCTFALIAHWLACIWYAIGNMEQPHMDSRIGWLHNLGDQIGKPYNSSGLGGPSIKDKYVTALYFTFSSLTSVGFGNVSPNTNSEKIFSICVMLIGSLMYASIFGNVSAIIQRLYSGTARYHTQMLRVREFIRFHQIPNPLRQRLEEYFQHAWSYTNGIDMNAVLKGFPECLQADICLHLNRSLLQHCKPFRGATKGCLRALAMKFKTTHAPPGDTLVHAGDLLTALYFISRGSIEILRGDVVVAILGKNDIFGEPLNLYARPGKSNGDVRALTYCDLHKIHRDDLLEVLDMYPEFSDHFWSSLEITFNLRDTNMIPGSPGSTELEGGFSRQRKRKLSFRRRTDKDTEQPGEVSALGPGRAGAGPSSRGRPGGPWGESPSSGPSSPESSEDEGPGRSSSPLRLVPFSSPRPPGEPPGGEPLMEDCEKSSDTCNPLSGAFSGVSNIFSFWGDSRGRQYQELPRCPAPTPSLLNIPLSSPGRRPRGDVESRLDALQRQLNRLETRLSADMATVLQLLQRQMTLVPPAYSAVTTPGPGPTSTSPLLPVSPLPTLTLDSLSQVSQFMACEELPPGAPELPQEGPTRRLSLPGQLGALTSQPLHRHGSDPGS

[2] = Acute toxicity in Kunming mouse at >=1.5 g/kg, po administered as single dose and measured for 14 days; format: organism-based; details: in vivo, 1500 mg/kg, 336 h
[3] = target: 3',5'-cyclic-AMP phosphodiesterase 4D (Homo sapiens, UniProt Q08499); assay: Inhibition of human PDE4D2 (86 to 413 residues) expressed in Escherichia coli BL21 codon-plus cells using [3H]cAMP as substrate incubated for 15 mins by liquid scintillation counting method
3',5'-cyclic-AMP phosphodiesterase 4D, sequence (Q08499 whole entry, the tested form may be a part): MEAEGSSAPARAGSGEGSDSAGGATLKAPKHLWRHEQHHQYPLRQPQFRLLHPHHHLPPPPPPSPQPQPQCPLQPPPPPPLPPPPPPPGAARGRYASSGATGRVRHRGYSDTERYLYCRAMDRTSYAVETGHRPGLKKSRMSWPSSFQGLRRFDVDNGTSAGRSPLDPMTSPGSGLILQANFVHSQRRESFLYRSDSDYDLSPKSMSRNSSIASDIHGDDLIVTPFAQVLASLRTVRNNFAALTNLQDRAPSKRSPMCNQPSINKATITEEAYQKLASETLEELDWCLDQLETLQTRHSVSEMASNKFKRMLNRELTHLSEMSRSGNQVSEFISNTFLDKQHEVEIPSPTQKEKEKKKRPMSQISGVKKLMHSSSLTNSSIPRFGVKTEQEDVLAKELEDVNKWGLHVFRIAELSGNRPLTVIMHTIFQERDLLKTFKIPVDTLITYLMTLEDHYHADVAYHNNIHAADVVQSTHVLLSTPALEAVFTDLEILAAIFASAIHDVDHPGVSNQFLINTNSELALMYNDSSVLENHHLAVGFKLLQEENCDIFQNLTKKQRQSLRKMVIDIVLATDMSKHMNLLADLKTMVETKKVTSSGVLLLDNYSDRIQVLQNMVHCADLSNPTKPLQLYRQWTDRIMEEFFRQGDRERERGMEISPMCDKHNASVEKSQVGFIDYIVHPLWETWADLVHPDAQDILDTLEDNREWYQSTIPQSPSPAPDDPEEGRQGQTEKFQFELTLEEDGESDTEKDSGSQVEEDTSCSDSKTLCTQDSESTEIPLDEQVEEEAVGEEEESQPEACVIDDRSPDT

[4] = Half life in Sprague-Dawley rat at 5 mg/kg, po measured upto 24 hrs by LC-MS/MS analysis; format: ADME, organism-based; details: in vivo
[5] = Protein binding in rat plasma at 1 uM by LC-MS/MS analysis; format: ADME, cell-free; details: read-out: PPB
[6] = organism: Homo sapiens; assay: Selectivity index, ratio of IC50 for human PDE9A2 (181 to 506 residues) expressed in Escherichia coli BL21 codon-plus cells to IC50 for human PDE4D2 (86 to 413 residues) expressed in Escherichia coli BL21 codon-plus cells
[7] = target: Cytochrome P450 1A2 (Homo sapiens, UniProt P05177); assay: Inhibition of human CYP1A2; format: ADME
Cytochrome P450 1A2, sequence (P05177 whole entry): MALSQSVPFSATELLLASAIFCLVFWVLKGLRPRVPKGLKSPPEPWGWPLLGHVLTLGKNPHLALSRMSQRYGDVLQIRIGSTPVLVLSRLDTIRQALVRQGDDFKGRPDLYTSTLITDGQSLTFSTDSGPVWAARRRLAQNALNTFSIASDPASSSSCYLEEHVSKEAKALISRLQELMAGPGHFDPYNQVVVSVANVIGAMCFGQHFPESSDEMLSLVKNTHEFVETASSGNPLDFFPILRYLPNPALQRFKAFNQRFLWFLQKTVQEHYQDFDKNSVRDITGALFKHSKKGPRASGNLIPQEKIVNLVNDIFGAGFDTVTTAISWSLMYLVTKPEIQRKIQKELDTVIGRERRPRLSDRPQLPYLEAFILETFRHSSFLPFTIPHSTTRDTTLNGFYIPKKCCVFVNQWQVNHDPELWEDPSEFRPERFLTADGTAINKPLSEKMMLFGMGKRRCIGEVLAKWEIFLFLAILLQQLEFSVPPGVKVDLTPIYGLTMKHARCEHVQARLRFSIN

[8] = Toxicity in Beagle dog assessed as animals exhibiting emesis at 5 mg/kg, po observed for 180 mins; format: organism-based, Canis lupus familiaris; details: in vivo, 3 h
[9] = test system: RAW264.7; assay: Antiinflammatory activity in mouse RAW264.7 assessed as reduction in LPS-induced NO production incubated for 24 hrs by Griess method; format: functional, cell-based
[10] = target: Cytochrome P450 2B6 (Homo sapiens, UniProt P20813); assay: Inhibition of human CYP2B6; format: ADME
Cytochrome P450 2B6, sequence (P20813 whole entry): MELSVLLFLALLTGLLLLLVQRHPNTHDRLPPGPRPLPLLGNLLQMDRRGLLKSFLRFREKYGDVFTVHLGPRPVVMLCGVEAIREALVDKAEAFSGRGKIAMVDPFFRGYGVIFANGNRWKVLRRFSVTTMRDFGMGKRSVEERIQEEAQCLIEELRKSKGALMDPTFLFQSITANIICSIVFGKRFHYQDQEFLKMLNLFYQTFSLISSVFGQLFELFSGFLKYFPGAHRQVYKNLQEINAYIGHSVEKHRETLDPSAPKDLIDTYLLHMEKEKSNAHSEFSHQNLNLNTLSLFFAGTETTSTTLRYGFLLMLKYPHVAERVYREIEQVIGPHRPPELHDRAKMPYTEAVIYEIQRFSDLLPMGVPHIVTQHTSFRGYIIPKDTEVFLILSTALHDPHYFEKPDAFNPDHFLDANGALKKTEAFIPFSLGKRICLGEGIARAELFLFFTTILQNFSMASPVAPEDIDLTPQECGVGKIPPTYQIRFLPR

[11] = Tmax in Sprague-Dawley rat at 5 mg/kg, po measured upto 24 hrs by LC-MS/MS analysis; format: ADME, organism-based; details: in vivo
[12] = test system: Mus musculus; assay: Anti-VaD activity against UCCAO-induced spatial memory deficient C57BL/6J mouse model assessed as improvement in spatial learning and memory by measuring decrease in error time at 10 mg/kg, po administered for 21 days by passive avoidance test; format: functional, organism-based
[13] = organism: Homo sapiens; assay: Selectivity index, ratio of IC50 for human PDE7A1 (130 to 482 residues) expressed in Escherichia coli BL21 codon-plus cells to IC50 for human PDE4D2 (86 to 413 residues) expressed in Escherichia coli BL21 codon-plus cells
[14] = target: High affinity 3',5'-cyclic-AMP phosphodiesterase 7A (Homo sapiens, UniProt Q13946); assay: Inhibition of human PDE7A1 (130 to 482 residues) expressed in Escherichia coli BL21 codon-plus cells using [3H]cAMP as substrate incubated for 15 mins by liquid scintillation counting method
High affinity 3',5'-cyclic-AMP phosphodiesterase 7A, sequence (Q13946 whole entry, the tested form may be a part): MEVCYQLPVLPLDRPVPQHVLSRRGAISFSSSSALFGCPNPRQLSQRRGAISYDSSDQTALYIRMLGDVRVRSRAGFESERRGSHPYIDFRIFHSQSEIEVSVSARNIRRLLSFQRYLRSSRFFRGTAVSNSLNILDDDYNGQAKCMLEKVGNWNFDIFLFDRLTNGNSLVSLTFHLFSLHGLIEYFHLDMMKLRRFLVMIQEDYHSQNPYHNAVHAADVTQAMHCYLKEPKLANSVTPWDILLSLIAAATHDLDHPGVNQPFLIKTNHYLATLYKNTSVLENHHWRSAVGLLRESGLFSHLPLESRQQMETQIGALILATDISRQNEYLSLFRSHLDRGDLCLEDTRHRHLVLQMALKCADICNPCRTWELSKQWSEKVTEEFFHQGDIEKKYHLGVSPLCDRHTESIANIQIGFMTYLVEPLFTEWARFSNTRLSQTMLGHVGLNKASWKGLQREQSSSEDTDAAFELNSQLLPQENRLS

[15] = Stability in rat liver microsomes assessed as half life at 0.5 uM; format: ADME, Microsome
[16] = target: cGMP-inhibited 3',5'-cyclic phosphodiesterase 3A (Homo sapiens, UniProt Q14432); assay: Inhibition of human PDE3A (679 to 1087 residues) expressed in Escherichia coli BL21 codon-plus cells using [3H]cAMP as substrate incubated for 15 mins by liquid scintillation counting method
cGMP-inhibited 3',5'-cyclic phosphodiesterase 3A, sequence (Q14432 whole entry, the tested form may be a part): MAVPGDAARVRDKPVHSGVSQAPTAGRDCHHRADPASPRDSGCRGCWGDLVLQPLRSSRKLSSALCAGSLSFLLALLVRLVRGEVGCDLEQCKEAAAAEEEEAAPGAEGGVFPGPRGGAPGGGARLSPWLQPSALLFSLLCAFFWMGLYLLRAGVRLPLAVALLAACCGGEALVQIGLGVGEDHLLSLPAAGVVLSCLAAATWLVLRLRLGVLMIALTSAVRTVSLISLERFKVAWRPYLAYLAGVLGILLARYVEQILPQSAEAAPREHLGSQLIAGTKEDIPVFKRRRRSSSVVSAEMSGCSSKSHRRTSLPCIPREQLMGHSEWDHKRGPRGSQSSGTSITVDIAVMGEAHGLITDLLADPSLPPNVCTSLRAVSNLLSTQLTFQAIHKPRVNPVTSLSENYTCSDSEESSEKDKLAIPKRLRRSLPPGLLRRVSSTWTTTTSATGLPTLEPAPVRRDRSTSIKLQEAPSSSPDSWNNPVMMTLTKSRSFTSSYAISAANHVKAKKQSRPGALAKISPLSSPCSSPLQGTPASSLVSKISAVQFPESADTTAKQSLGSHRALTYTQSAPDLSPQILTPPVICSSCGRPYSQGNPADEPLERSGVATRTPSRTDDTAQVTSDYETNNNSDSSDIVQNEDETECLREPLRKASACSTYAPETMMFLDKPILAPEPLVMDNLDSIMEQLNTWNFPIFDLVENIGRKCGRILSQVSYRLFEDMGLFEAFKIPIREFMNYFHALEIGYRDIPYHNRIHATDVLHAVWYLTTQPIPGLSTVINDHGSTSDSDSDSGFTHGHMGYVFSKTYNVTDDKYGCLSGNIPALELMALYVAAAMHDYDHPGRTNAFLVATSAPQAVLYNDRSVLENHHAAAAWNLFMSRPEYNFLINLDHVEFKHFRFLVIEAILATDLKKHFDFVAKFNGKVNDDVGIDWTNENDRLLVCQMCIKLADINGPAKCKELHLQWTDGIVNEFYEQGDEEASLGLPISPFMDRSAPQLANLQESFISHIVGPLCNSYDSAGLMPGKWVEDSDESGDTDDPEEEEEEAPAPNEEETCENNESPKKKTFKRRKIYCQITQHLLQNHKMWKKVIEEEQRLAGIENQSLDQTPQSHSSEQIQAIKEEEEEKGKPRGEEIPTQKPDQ

[17] = AUC(0 to t) in Sprague-Dawley rat at 5 mg/kg, po measured upto 24 hrs by LC-MS/MS analysis; format: ADME, organism-based; design: dose 5 mg/kg, time < 24 hr, route oral; details: in vivo
[18] = organism: Homo sapiens; assay: Selectivity index, ratio of IC50 for human PDE10A2 (449 to 770 residues) expressed in Escherichia coli BL21 codon-plus cells to IC50 for human PDE4D2 (86 to 413 residues) expressed in Escherichia coli BL21 codon-plus cells

For `COc1c(OCCCCCCC(=O)O)cc2oc3cc4c(c(O)c3c(=O)c2c1CC=C(C)C)C=CC(C)(C)O4`, the IC50 [1] was greater than 30 µM, the Activity [2] was “Non-Toxic” and the IC50 [3] was 0.017 µM. It also gave a half-life [4] of 3.48 h, a fraction unbound at 1 µM [5] of 0.01 and a Ratio IC50 [6] greater than 580. The IC50 [7] was greater than 10 µM, the Activity [8] was 0% and the Activity [9] was “Dose-dependent effect”. For the same molecule, the IC50 [10] was greater than 10 µM, the Tmax [11] was 4.67 h and the Activity [12] was “Active”. For the same molecule, the Ratio IC50 [13] was 36, the IC50 [14] was 0.62 µM and the half-life at 0.5 µM [15] was 2.8 h. The IC50 [16] was greater than 10 µM, the AUC(0-t) at 24 h [17] was 4740 ng·h/mL and the Ratio IC50 [18] was greater than 580.
